Test results published in US11230578B2, “Peptides and use of same in the treatment of diseases, disorders or conditions associated with a mutant P53” (Yeda Research and Development Co. Ltd., priority 2016, dated 2022).
Like-named read-outs stand apart in the source and are kept apart here.

What was measured:
[1] = test system: ES2 ovarian cancer cells (p53 mutant S241F); format: cell-based
Experimental: Cells were cultured in 96 wells plates with 3000 cells/well. […] Then medium was removed and cell viability was determined by staining the cells with crystal violet (0.05%) in methanol/PBS (1:5, v/v), for 10 min, followed by 3 washes with PBS. 10% acetic acid was added to each well for 10 min. OD was determined at 595 nm.
Cells, ES2 Con expressing endogenous mp53^S241F, and ES2 KO cells in which p53 was stably knocked out using CRISPR/Cas9 (ES2 p53KO), to control for specificity for mutp53 were cultured in 96 wells plates with 3000 cells/well. Indicated peptides were added at a concentration of 8 μg/ml and the plates incubated for additional 48 h at 37° C. Then medium was removed and cell viability was determined by staining the cells with crystal violet (0.05%) in methanol/PBS (1:5, v/v), for 10 min, followed by 3 washes with PBS. 10% acetic acid was added to each well for 10 min. OD was determined at 595 nm.
Cells were cultured in 96 wells plates with 3000 cells/well. Serial dilutions of different peptides were added and the plates incubated for additional 48 h at 37° C. Then the medium was removed and cell viability was determined by staining the cells with crystal violet (0.05%) in methanol/PBS (1:5, v/v), for 10 min, followed by 3 washes with PBS. 10% acetic acid was added to each well for 10 min. OD was determined at 595 nm. Results are normalized to non-treated cells 100% viability.
Cells were cultured in 96 wells plates with 2500-4000 cells/well. Serial dilutions of different peptides were added and the plates incubated for additional 48 h at 37° C. Then medium was removed and cell viability was determined by staining the cells with crystal violet (0.05%) in methanol/PBS (1:5, v/v), for 10 min, followed by 3 washes with PBS. 10% acetic acid was added to each well for 10 min. OD was determined at 595 nm.
ES2 Cells were cultured in 96 wells plates with 3000 cells/well. […] Then medium was removed and cell viability was determined by staining the cells with crystal violet (0.05%) in methanol/PBS (1:5, v/v), for 10 min, followed by 3 washes with PBS. 10% acetic acid was added to each well for 10 min. OD was determined at 595 nm.
Cells, ES2 Con expressing endogenous mp53S241F, and ES2 KO cells in which p53 was stably knocked out using CRISPR/Cas9 (ES2 p53KO), to control for specificity for mutp53 were cultured in 96 wells plates with 3000 cells/well. The indicated peptides were added at a concentration of 8 μg/ml and the plates incubated for additional 48 h at 37° C. Then medium was removed and cell viability was determined by staining the cells with crystal violet (0.05%) in methanol/PBS (1:5, v/v), for 10 min, followed by 3 washes with PBS. 10% acetic acid was added to each well for 10 min. OD was determined at 595 nm.

[2] = Pharmacokinetic study, plasma half life; format: in vivo
Source text: FIGS. 4A-D show the pharmacokinetics of various modes of administration.

[3] = test system: ES2 cells expressing luciferase; assay: ES2 ovarian cancer mouse xenograft model, luciferase live imaging; format: in vivo, nude mice
Experimental: 2*10^5 ES2 cells expressing luciferase were injected into the hips of nude mice. Bioluminescence was measured. […] The background threshold detection level of the IVIS system was about 5×10^6 photons. […]
Mice (6 weeks Athymic nude) were injected subcutaneously with 2×10^5-10^6 cells into each […]. All the cell lines employed in these experiments stably express a luciferase reporter gene to enable monitoring of tumor growth by live imaging. 4-18 days later, when tumors reached visible size, the mice were randomly divided into several groups: a control group, treated with either a single control peptide, and groups treated with effective peptide, either a single peptide. Peptides were administered either by intratumoral injection of 10 μg peptide per tumor in 40 μl PBS, three times a week or by Alzet mini pumps 0.8 mg for two weeks. Tumor growth over time was measured by live imaging, using the IVIS2000 system. Exposure time was calibrated to 20 seconds. 16 images were taken over 8 minutes and peak luminescence values were taken for each tumor. Experiments were conducted until tumors reached maximal allowed size of 1 cm^3, at which mice were sacrificed and tumors extracted, measured and weighed.

## CCCCCCCCCCCCCC(=O)N[C@@H](CCCNC(=N)N)C(=O)N[C@@H](CCCNC(=N)N)C(=O)N[C@@H](Cc1c[nH]cn1)C(=O)N[C@@H](CO)C(=O)N[C@H](C(=O)N1CCC[C@H]1C(=O)N[C@@H](Cc1c[nH]cn1)C(=O)N1CCC[C@H]1C(=O)N[C@@H](CC(=O)O)C(=O)O)[C@@H](C)O [pCAP-250]
[1]; 48 h
  IC50: 3200 nM
[1]; ES2 cells, FIG. 1
  viability of the cancer cells in the presence of peptide: reduced significantly
[1]; ES2 cells, pCAP-250 dilutions + 1 μg/ml cisplatin, 48 h
  combination effect of pCAP-250 and cisplatin: synergistic effect
[1]; read-out: IC50 for pCAP-250 in combination with cisplatin, cell viability, ES2 cells, together with 1 μg/ml of cisplatin, 48 h, estimated
  IC50: 1900 nM
[2]; iv, 1 mg/kg, administered intravenously
  half-life: 0.8 to 1.8 h
[2]; sc, administered subcutaneously
  half-life: 3 to 8 h
[3]; intratumoral injections, 0.4 mg/kg 3 times a week
  effect on tumor development of ES2 cells: significant effect
[3]; subcutaneously by Alzet minipumps, 2.3 mg/kg per day
  effect on tumor development of ES2 cells: significant effect
